The source of these data is patent US6962920B2, “Pyrimidine derivatives and methods of making and using these derivatives” (Duquesne University of the Holy Ghost, priority 1992, dated 2005).

The subject of one assay is CCRF-CEM cells. In words: Growth inhibition of CCRF-CEM human leukemia cells, continuous exposure. Particulars: Table 8, continuous (0-120 hours) exposure, read-out: Growth inhibition EC50, CCRF-CEM. The assay is classed as cell-based.
The test system of a further assay is R30dm cells. In words: Growth inhibition of R30dm subline (decreased polyglutamate synthase). The assay is classed as cell-based. To be noted: Homo sapiens, Table 8, continuous (0-120 hours) exposure, read-out: Growth inhibition EC50, R30dm.
A further assay has as its system R2 cells. The assay can be described thus: Growth inhibition of R2 subline (MTX-transport deficient). The class given is cell-based. To be noted: Homo sapiens; Table 8; continuous (0-120 hours) exposure; read-out: Growth inhibition EC50, R2.
The subject of another assay is A253. The assay can be described thus: Growth inhibition of A253 human squamous carcinoma cell line. The assay is classed as cell-based. Particulars: Table 9, continuous (120 hours) exposure. On the procedure:
The performance of these compounds was evaluated against MTX.

For another assay, the system named is FaDu. In words: Growth inhibition of FaDu human squamous carcinoma cell line. The assay is classed as cell-based. Particulars: Homo sapiens, FaDu; Table 9; continuous (120 hours) exposure; read-out: Growth inhibition EC50, FaDu.
Assay [1] concerns the target T1, CCRF-CEM human leukemia cell folylpolyglutamate synthetase (Homo sapiens, UniProt Q05932).
T1 construct: substrates for human leukemia cell CCRF-CEM folylpolyglutamate synthetase; endogenous in cells; host or cells: CCRF-CEM human leukemia cells
T1 sequence (Q05932 43-587): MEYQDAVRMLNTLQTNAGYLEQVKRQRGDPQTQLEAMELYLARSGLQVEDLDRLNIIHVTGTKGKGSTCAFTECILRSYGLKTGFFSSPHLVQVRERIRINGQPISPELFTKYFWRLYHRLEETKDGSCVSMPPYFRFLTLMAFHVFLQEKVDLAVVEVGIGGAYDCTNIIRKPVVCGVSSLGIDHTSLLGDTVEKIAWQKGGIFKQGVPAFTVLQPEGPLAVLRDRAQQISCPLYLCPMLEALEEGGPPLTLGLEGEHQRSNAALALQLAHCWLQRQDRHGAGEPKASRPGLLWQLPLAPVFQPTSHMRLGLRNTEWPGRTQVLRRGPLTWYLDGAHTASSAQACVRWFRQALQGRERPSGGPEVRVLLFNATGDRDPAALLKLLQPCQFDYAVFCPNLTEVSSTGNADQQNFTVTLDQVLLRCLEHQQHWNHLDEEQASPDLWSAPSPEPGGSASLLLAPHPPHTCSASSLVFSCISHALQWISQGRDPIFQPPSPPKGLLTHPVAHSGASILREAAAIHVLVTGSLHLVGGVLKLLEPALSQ
In words: Substrate activity for CCRF-CEM folylpolyglutamate synthetase. The class given is biochemical. To be noted: Table 10. On the procedure:
Aminopterin is a classical 2,4-diamino antifolate substrate.
Compounds 33 and 34 were also evaluated for their substrate activity in CCRF-CEM human leukemia folylpolyglutamate synthetase; the compounds were compared against aminopterin.

A further assay deals with HOP-62. The assay is classed as cell-based. Particulars: Homo sapiens; HOP-62, Non-Small Cell Lung Cancer.
The next assay concerns HCC-2998. In words: NCI in vitro anti-cancer activity, Colon Cancer. The assay is classed as cell-based. To be noted: Homo sapiens; HCC-2998, Colon Cancer.
In the next assay the test system is MCF7/ADR-RES. The assay can be described thus: NCI in vitro anti-cancer activity, Breast Cancer. To be noted: Homo sapiens. The class given is cell-based.
The next assay addresses L. casei DHFR (Lacticaseibacillus casei, UniProt P00381). The assay can be described thus: Inhibition of Lactobacillus casei DHFR. The class given is biochemical. Particulars: at […] 10^−5.

L. casei DHFR, sequence (P00381 whole entry): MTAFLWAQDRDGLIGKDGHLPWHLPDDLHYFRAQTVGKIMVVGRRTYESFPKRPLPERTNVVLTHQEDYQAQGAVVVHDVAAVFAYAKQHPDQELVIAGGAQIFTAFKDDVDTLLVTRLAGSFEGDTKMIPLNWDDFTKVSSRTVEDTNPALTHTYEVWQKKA

For the compound `Nc1nc(N)c2c(CNc3ccc(C(=O)N[C@@H](CCC(=O)O)C(=O)O)cc3)c[nH]c2n1` [Compound 9], the EC50 (in general, the concentration at which the effect is half-maximal) was found to be 12.8 ± 2.2 nM with CCRF-CEM cells; 36 ± 1 nM with R30dm cells; 1650 ± 200 nM in the assay with R2 cells; 46 ± 4 nM in the assay with A253; 22 ± 4 nM in the assay on FaDu. Besides, the “Vmax(rel)” value in [1] (relative to aminopterin) worked out at 0.72 ± 0.07. In addition, the Km – broadly, the concentration of substrate that gives half-maximal velocity – in assay [1] (substrate for FPGS) is < 1 µM. Moreover, the GI50 in the assay with HOP-62, in the assay with HCC-2998 and with MCF7/ADR-RES was < 10 nM in each case.

Turning to `COc1ccc(CCc2cn(Cc3ccccc3)c3nc(N)nc(C)c23)cc1` [Compound 113-118], at L. casei DHFR, the “% inhibition obtained at the stated concentration, L. casei DHFR” value stood at 0%.
